In one assay the test system is HT-22. Briefly: Antiproliferative activity against mouse HT22 cells by MTS reduction assay.
The test system of a further assay is MCF7. Briefly: Antiproliferative activity against human MCF7 cells after 48 hrs by resazurin reduction test. The conditions noted are these: MCF7, 48 h. Background: The colour change of resazurin is a common sign of viable cells or microbes.
Assay [1] concerns the target Dual specificity tyrosine-phosphorylation-regulated kinase 1A (Rattus norvegicus, UniProt Q63470). Briefly: Inhibition of rat recombinant GST-tagged DYRK1A using myelin protein as substrate and [gamma32]-ATP after 30 mins by scintillation counting.
The next assay has as its system IMR-32. Briefly: Antiproliferative activity against human IMR32 cells by MTS reduction assay. A general note: Tetrazolium dyes change colour on reduction, which living cells bring about.
For assay [2], the target named is Cyclin-dependent kinase 5/CDK5 activator 1 (Homo sapiens, UniProt Q00535). Briefly: Inhibition of human recombinant CDK5/p25 using Histone H1 and [gamma32]-ATP after 30 mins by scintillation counting. It counts as protein-complex assay.
A further assay relates to SH-SY5Y. Briefly: Antiproliferative activity against human SH-SY5Y cells by MTS reduction assay.
Assay [3] can be described thus: Inhibition of pig brain CK1 delta/epsilon using RRKHAAIGpSAYSITA as substrate. The arrangement: species or system Sus scrofa.
In another assay the test system is PC-3. Briefly: Antiproliferative activity against human PC3 cells after 48 hrs by resazurin reduction test. To be noted: PC-3, 48 h.
The test system of a further assay is PA-1. Briefly: Antiproliferative activity against human PA1 cells after 48 hrs by resazurin reduction test. It counts as functional, cell-based. The conditions noted are these: PA-1, 48 h.
Assay [4] addresses Dual specificity protein kinase CLK1 (Homo sapiens, UniProt P49759).
Assay [5] concerns the target Glycogen synthase kinase-3 (Sus scrofa, UniProt B2LUN4+I6LNT8). Briefly: Inhibition of pig brain GSK-3alpha/beta using YRRAAVPPSPSLSRHSSPHQSpEDEEE as substrate.
Another assay relates to DU-145. Briefly: Antiproliferative activity against human DU145 cells after 48 hrs by resazurin reduction test. Type of assay: functional, cell-based. To be noted: DU-145, 48 h.
The nature of assay [6]: Antiproliferative activity against human primary fibroblasts after 48 hrs by resazurin reduction test. The conditions noted are these: Fibroblast. It counts as cell-based.

Among the data in ChEMBL document CHEMBL1799982, “Synthesis, protein kinase inhibitory potencies, and in vitro antiproliferative activities of meridianin derivatives” (J Med Chem, 2011) are IC50 values, retold here.

A value given as a limit tells only on which side of the number the result lay.

Chain of Dual specificity protein kinase CLK1 (P49759 whole entry): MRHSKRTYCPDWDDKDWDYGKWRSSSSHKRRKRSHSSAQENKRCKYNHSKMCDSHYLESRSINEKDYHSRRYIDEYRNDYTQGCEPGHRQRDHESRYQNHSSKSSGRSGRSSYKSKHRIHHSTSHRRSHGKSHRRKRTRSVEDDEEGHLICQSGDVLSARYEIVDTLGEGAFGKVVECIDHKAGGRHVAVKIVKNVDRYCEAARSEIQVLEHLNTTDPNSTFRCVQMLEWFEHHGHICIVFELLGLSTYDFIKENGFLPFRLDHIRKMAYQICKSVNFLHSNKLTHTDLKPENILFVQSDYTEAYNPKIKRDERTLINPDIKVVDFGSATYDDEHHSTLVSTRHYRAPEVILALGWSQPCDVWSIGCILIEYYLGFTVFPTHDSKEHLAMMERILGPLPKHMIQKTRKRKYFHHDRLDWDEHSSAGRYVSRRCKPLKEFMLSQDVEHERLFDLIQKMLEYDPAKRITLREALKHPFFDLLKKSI
Chain of Cyclin-dependent kinase 5/CDK5 activator 1 (Q00535 whole entry): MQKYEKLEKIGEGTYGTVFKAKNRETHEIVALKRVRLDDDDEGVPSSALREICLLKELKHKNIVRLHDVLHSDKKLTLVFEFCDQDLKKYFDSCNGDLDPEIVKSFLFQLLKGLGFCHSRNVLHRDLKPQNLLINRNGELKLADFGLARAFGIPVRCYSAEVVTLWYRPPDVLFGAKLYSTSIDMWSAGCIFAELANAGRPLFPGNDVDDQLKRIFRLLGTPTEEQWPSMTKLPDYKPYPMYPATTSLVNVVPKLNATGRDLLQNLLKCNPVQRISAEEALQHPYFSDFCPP
Chain of Cyclin-dependent kinase 5/CDK5 activator 1 (Q15078 whole entry, further chain): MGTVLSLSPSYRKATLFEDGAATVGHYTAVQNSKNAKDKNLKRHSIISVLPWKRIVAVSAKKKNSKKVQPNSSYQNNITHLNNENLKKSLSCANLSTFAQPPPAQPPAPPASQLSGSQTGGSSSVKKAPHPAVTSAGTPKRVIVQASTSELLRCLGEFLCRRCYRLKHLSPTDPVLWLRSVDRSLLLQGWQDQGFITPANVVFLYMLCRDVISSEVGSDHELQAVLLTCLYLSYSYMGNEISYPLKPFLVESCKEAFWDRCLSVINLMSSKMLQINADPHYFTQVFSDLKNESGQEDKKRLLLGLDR

As for `CC(=O)c1ccc(-c2cnc(N)nc2-c2c[nH]c3cccc(Br)c23)cc1`, the IC50 (in general, the concentration that gives 50% inhibition) was more than 10 µM in the assay on HT-22; more than 10 µM with MCF7; 2.1 µM in assay [1]; more than 10 µM with IMR-32; 7 µM in assay [2]; more than 10 µM in the assay with SH-SY5Y. Besides, the IC50 (in [3]; in the assay on PC-3; in the assay with PA-1) was more than 10 µM each time.
Turning to `Nc1nccc(-c2c[nH]c3c([N+](=O)[O-])cccc23)n1`, the IC50 in [4] is 0.07 µM; in the assay on HT-22 it was more than 25 µM; in the assay with MCF7, more than 25 µM; in assay [1], 0.085 µM; in assay [5] it was more than 10 µM; with IMR-32, more than 25 µM. Besides, the IC50 was 6.3 µM in [2], more than 25 µM with SH-SY5Y and 10 µM in assay [3].
For the compound `COc1cccc(-c2cnc(N)nc2-c2c[nH]c3ccc(Br)cc23)c1`, the IC50 was 2.5 µM in assay [4]; 18 µM in the assay on HT-22; more than 25 µM in the assay with MCF7; 5.65 µM in assay [1]; 1.2 µM in assay [5]; 20 µM with IMR-32. Besides, the IC50 in [2] is 7.6 µM; with SH-SY5Y it was more than 25 µM; in assay [3], 2.2 µM; in the assay on PC-3, more than 10 µM; in the assay with PA-1 it was more than 10 µM.
With `Nc1ncc(-c2ccc(C(F)(F)F)cc2)c(-c2c[nH]c3cc(Br)ccc23)n1`, the IC50 in [4] is more than 10 µM; in the assay with HT-22, more than 10 µM; with MCF7 it was more than 10 µM; in assay [1] it was more than 10 µM; in assay [5] it was 6.1 µM; in the assay with IMR-32, more than 10 µM. The IC50 (in assay [2]; with SH-SY5Y; in assay [3]; in the assay on PC-3; in the assay with PA-1) was more than 10 µM in each case.
Consider `Nc1ncc(-c2ccc(C(F)(F)F)cc2)c(-c2c[nH]c3ccc(Br)cc23)n1`, for which the IC50 in [4] is more than 10 µM; in the assay on HT-22, more than 10 µM; in the assay with MCF7 it was more than 10 µM; in [1], more than 10 µM; in assay [5], 2 µM; in the assay on IMR-32, more than 10 µM. The IC50 (in assay [2]; with SH-SY5Y; in assay [3]; in the assay with PC-3; with PA-1) was more than 10 µM in each case.
For `Nc1nccc(-c2c[nH]c3cccc(Br)c23)n1`, the IC50 in [4] is 1.4 µM; with HT-22 it was more than 25 µM; with MCF7, more than 25 µM; in assay [1] it was 0.85 µM; in [5] it was more than 10 µM; in the assay on IMR-32 it was more than 25 µM. The IC50 in assay [2] is 10 µM; in the assay with SH-SY5Y, more than 25 µM; in assay [3], 5.3 µM.
For `Nc1ncc(-c2ccc(C(F)(F)F)cc2)c(-c2c[nH]c3cccc(Br)c23)n1`, the IC50 in assay [4] was 1.3 µM; in the assay with HT-22 it was more than 10 µM; in the assay with MCF7 it was more than 10 µM; in assay [1], 1.85 µM; in assay [5], 1 µM; with IMR-32, more than 10 µM. Further, the IC50 in [2] is 4.7 µM; in the assay on SH-SY5Y, more than 10 µM; in [3] it was more than 10 µM; in the assay on PC-3 it was more than 10 µM; with PA-1, more than 10 µM.
On to `Nc1ccc2c(-c3nc(N)ncc3I)c[nH]c2c1`, for which the IC50 in [4] is 0.08 µM; in the assay with HT-22, more than 10 µM; with MCF7 it was more than 10 µM; in assay [1], 0.22 µM; in assay [5], 4.2 µM; in the assay with IMR-32, more than 10 µM. For the same compound, the IC50 was 26 µM in the assay on DU-145; 6.2 µM in assay [2]; more than 10 µM in the assay on SH-SY5Y; 0.51 µM in [3]; 36 µM in [6]; 47 µM with PC-3. The same compound returned an IC50 with PA-1 of 13 µM.
On to `CC(=O)Nc1ccc(-c2cnc(N)nc2-c2c[nH]c3cccc(Br)c23)cc1`, for which the IC50 (in [4]; in the assay with HT-22; in the assay with MCF7; in assay [1]; in assay [5]; with IMR-32) was more than 10 µM in each case. The IC50 (in assay [2]; in the assay on SH-SY5Y; in assay [3]; in the assay on PC-3; with PA-1) was more than 10 µM each time.
`Nc1nccc(-c2c[nH]c3ccc(Br)cc23)n1` [MERIDIANIN C]: the IC50 in assay [4] was 0.22 µM; in the assay on HT-22, 9.3 µM; in the assay on MCF7, 24 µM; in [1], 0.33 µM; in [5], 1.3 µM; in the assay on IMR-32, more than 25 µM. Further, the IC50 in assay [2] is 1.2 µM; with SH-SY5Y it was more than 25 µM; in assay [3], 7.3 µM.
Take `Nc1nccc(-c2c[nH]c3cc(Br)ccc23)n1` [MERIDIANIN D]: the IC50 in assay [4] is 0.12 µM; in the assay with HT-22, more than 25 µM; with MCF7 it was more than 25 µM; in assay [1] it was 0.13 µM; in [5], 7.2 µM; in the assay with IMR-32, more than 25 µM. The IC50 in assay [2] is 1.2 µM; in the assay on SH-SY5Y, more than 25 µM; in assay [3], 3.8 µM.
As to `Nc1ncc(I)c(-c2c[nH]c3cccc(Br)c23)n1`, the IC50 in assay [4] was 2.3 µM; with HT-22 it was more than 10 µM; in the assay on MCF7, more than 10 µM; in assay [1] it was 1.45 µM; in assay [5] it was more than 10 µM; with IMR-32 it was more than 10 µM. Moreover, the IC50 was more than 10 µM in assay [2]; more than 10 µM in the assay on SH-SY5Y; 1.3 µM in assay [3]; more than 10 µM in the assay with PC-3; more than 10 µM in the assay on PA-1.
Regarding `Nc1nccc(-c2c[nH]c3cc([N+](=O)[O-])ccc23)n1`, the IC50 in assay [4] is 0.38 µM; in the assay on HT-22, more than 25 µM; in the assay with MCF7, more than 25 µM; in assay [1], 1.1 µM; in [5], more than 10 µM; with IMR-32 it was more than 25 µM. The IC50 in assay [2] is more than 10 µM; in the assay with SH-SY5Y, more than 25 µM; in assay [3] it was 6.3 µM.
In the case of `COc1cccc(-c2cnc(N)nc2-c2c[nH]c3cccc(Br)c23)c1`, the IC50 was 1.3 µM in assay [4]; more than 10 µM in the assay with HT-22; more than 10 µM in the assay on MCF7; 0.81 µM in assay [1]; 1.4 µM in assay [5]; more than 10 µM in the assay on IMR-32. In addition, the IC50 in assay [2] was 6 µM; with SH-SY5Y it was more than 10 µM; in assay [3] it was more than 10 µM; with PC-3, more than 10 µM; in the assay on PA-1, more than 10 µM.
Consider `Nc1ncc(I)c(-c2c[nH]c3ccc(Br)cc23)n1`, for which the IC50 in assay [4] is 0.18 µM; in the assay on HT-22, 8 µM; in the assay on MCF7, more than 25 µM; in [1], 0.33 µM; in [5], 2.1 µM; with IMR-32 it was 13 µM. The IC50 in assay [2] was 1.8 µM; with SH-SY5Y, 23 µM; in assay [3], 0.77 µM; with PC-3, more than 10 µM; with PA-1 it was more than 10 µM.
With `COc1cccc(-c2cnc(N)nc2-c2c[nH]c3cc(Br)ccc23)c1`, the IC50 was 2.3 µM in assay [4]; 16 µM with HT-22; more than 25 µM with MCF7; 8.2 µM in assay [1]; 4.5 µM in assay [5]; 18 µM in the assay on IMR-32. Also, the IC50 is more than 10 µM in assay [2]; more than 25 µM with SH-SY5Y; 3.2 µM in assay [3]; more than 10 µM in the assay with PC-3; more than 10 µM in the assay on PA-1.
Consider `CC(=O)Nc1ccc(-c2cnc(N)nc2-c2c[nH]c3ccc(Br)cc23)cc1`, for which the IC50 in assay [4] is 0.75 µM; with HT-22, more than 10 µM; in the assay on MCF7, more than 10 µM; in [1] it was 4.15 µM; in assay [5] it was 0.4 µM; in the assay on IMR-32, more than 10 µM. For the same compound, the IC50 in assay [2] was 6.8 µM; with SH-SY5Y it was more than 10 µM; in [3], 2.1 µM; in the assay with PC-3, more than 10 µM; in the assay on PA-1 it was more than 10 µM.
Consider `CC(=O)c1ccc(-c2cnc(N)nc2-c2c[nH]c3ccc(Br)cc23)cc1`, for which the IC50 in [4] is 1.6 µM; in the assay on HT-22 it was 10 µM; in the assay with MCF7, 4.2 µM; in [1], 8.45 µM; in [5], 0.68 µM; in the assay with IMR-32, 13 µM. For the same compound, the IC50 in assay [2] is more than 10 µM; with SH-SY5Y, more than 25 µM; in [3], more than 10 µM; in the assay with PC-3 it was more than 10 µM; in the assay on PA-1, more than 10 µM.
Regarding `Nc1nccc(-c2c[nH]c3c(Br)cccc23)n1`, the IC50 in assay [4] was 0.065 µM; in the assay with HT-22, more than 25 µM; in the assay with MCF7, more than 25 µM; in assay [1], 0.068 µM; in [5], more than 10 µM; in the assay with IMR-32, 25 µM. Moreover, the IC50 in assay [2] is 3.1 µM; in the assay on SH-SY5Y, more than 25 µM; in assay [3], 4.2 µM.
For `Nc1nccc(-c2c[nH]c3ccccc23)n1`, the IC50 in [4] was 0.53 µM; in the assay on HT-22, more than 25 µM; in the assay with MCF7, more than 25 µM; in assay [1], 0.7 µM; in assay [5], more than 10 µM; in the assay on IMR-32, more than 25 µM. Besides, the IC50 in assay [2] was 5 µM; with SH-SY5Y, more than 25 µM; in [3] it was 6.2 µM.
